The target of test [1] is T1, MAP1LC3B ATG8 (Homo sapiens, UniProt Q9GZQ8). The test can be described thus: FP displacement assay, MAP1LC3B ATG8. In kind it is binding. As to conditions: for Kd: read-out: KD-values [µM] + SEM.
Description: (§1) FP experiments were performed, as previously described (Kliche et al, [2021], [2023]), on an iD5 plate reader (Molecular devices) using black half-area non-binding 96-well plates (Corning). In order to calculate the FP signal in millipolarisation (mP), the FITC-labelled peptides were excited at 485 nm and the emitted light was measured at 535 nm in two different angles. For saturation experiments, a dilution series of the respective protein domains was generated (25 µL) and 10 nM fluorescein isothiocyanate (FITC)-labelled peptide (diluted in 50 mM sodium phosphate buffer pH 7.4, 0.05% Tween) were added in an end volume of 50 µL. A control experiment titrating GST was performed for the binding of the NEDD4 WW2 domain, since the GST-tagged construct was used for affinity measurements. For fitting the data, the buffer-corrected reduced values were plotted in GraphPad PRISM against the respective protein concentration and the KD-values were obtained by fitting against the quadratic equation (Gianni et al, [2005]).
(§2) The buffer-corrected reduced values were subsequently plotted against the logarithmic unlabelled peptide concentration to derive the IC50 values by using the sigmoidal dose-response (x is logarithmic) fit in GraphPad PRISM and calculate the KD values as described previously (Nikolovska-Coleska et al, [2004]).
Test [2] addresses T1, MAP1LC3B ATG8. As to the kind of experiment: Isothermal titration calorimetry, MAP1LC3B ATG8. More on the design: S∆T / ∆H: unit not given here. Format: binding. As to conditions: ITC; for N (stoichiometry of the interaction): N value from the fit or set if necessary.
For the next test, the target named is ABL1 SH3 (Homo sapiens, UniProt P00519). As to the kind of experiment: GenVar_HD2 ProP-PD phage selection, ABL1 SH3. Format: binding. As to conditions: for confidence: confidence of the enriched peptide; for overlap: overlapping peptides; for replicates: replicates in which the peptide was found; for mutant_found: True/False if a mutated peptide was found in selection; for wildtype_found: True/False if a wild type peptide was found in selection; for mutation_effect_on_PPI: bait-mutation pair categorized as diminished, enhanced or no_effect; for max_mutant_confidence: maximum confidence for an enriched mutated peptide; for max_wildtype_confidence: maximum confidence for an enriched wild type peptide.

In the next test the test system is KPNA4 ARM. As to the kind of experiment: GenVar_HD2 ProP-PD phage selection, KPNA4 ARM. As to conditions: for Mutation enrichment score: bait KPNA4 ARM, from NGS counts of overlapping wild-type/mutant library peptide pairs, positive = mutation enhances, negative = disrupts binding; for max_promiscuity / max_specificity: bait-prey protein level, bait_accession O00629. In kind it is binding, human.

In another test the target is KPNA4 ARM major (Homo sapiens, UniProt O00629). The test can be described thus: FP displacement assay, KPNA4 ARM major pocket. Format: binding. As to conditions: from FP displacement KD values, KPNA4 ARM major pocket.
A further test has as its target KPNA7 ARM major (Homo sapiens, UniProt A9QM74). The test can be described thus: FP displacement assay, KPNA7 ARM major pocket. In kind it is binding. As to conditions: for Kd: read-out: KD-values [µM] + SEM.
Test [3] deals with T1, MAP1LC3B ATG8. As to the kind of experiment: GenVar_HD2 ProP-PD phage selection, MAP1LC3B ATG8. As to conditions: bait MAP1LC3B ATG8; from NGS counts of overlapping wild-type/mutant library peptide pairs; positive = mutation enhances, negative = disrupts binding. How it is done:
Phage display screens were performed according to previous reports (Benz et al, [2022]; Ali et al, [2020]) and for four consecutive selection rounds with five to six replicates per bait protein domain against the […] library.
On the first day, both bait (15 µg in 100 µL PBS) and control protein domains (GST and MBP; 10 µg in 100 µL PBS) were immobilised on a 96-well MaxiSorb plate (Nunc) overnight in the cold room while shaking. Additionally, a 10 mL culture of Omnimax E. coli bacteria supplemented with 10 µg/mL tetracycline was incubated overnight at 37 °C at 200 rpm.
First, protein solutions were removed from both control and bait protein domain plates and the wells were blocked with 0.5% BSA in PBS (200 µL/well) for 1 h in the cold room while shaking. After that, three Omnimax E. coli cultures were started supplemented with either 30 µg/mL kanamycin, 100 µg/mL carbenicillin and 10 µg/mL tetracycline and incubated at 37 °C and 200 rpm. The two first cultures served as a means to check for helper phage contamination (kanamycin) and phages with library phagemid contamination (carbenicillin) of the culture used for elution of the phages during selections. The tetracycline Omnimax E. coli culture was grown until OD at 600 nm reached 0.6–0.8.
Naïve phage libraries were precipitated (10 µL/well of bait protein domain) by diluting the library tenfold with PBS, adding one-fourth of 20% […] and 400 mM NaCl and incubating the mixture for 15 min on ice. Subsequently, phages were spun down for 15 min at 13,000 × g and resuspended in 0.5% BSA and 0.05% Tween-20 in PBS (100 µL/well). Control domain plates were washed four times with 200 µL 0.05% Tween-20 in PBS, 100 µL of the naïve phage library (10^11 phages/mL) were added to every well and the plates incubated for 1 h in the cold room while shaking. Next, protein bait domain plates were washed four times with 0.05% Tween-20 in PBS and the phage solution from the control protein plate was transferred to the respective wells on the protein bait domain plate. […]

The mark [4] stands for this setting: phage selection, bait ABL1_SH3__P00519_60_121.
[5] abbreviates: bait domain-prey protein level, bait ABL1_SH3__P00519_60_121.

The values below come from PMC11369174, “Proteome-scale characterisation of motif-based interactome rewiring by disease mutations” (Molecular Systems Biology, 2024).

“Also recorded” adds a separate entry of the source.

KPNA7 ARM major, sequence (A9QM74 66-488 limits assumed): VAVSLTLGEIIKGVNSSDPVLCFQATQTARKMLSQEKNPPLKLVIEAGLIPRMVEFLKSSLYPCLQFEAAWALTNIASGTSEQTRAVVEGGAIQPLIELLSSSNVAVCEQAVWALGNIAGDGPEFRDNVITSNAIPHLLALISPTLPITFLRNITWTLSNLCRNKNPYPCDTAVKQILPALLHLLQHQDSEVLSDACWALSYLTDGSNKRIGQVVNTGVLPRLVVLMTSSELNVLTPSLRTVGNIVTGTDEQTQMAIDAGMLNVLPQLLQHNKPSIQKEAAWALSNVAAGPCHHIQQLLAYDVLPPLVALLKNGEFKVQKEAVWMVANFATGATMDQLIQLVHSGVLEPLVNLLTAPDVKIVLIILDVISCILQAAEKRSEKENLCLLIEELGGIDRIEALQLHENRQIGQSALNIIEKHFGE
ABL1 SH3, sequence (P00519 60-121): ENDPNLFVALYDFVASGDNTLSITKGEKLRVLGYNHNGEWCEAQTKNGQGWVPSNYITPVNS
KPNA4 ARM major, sequence (O00629 68-487): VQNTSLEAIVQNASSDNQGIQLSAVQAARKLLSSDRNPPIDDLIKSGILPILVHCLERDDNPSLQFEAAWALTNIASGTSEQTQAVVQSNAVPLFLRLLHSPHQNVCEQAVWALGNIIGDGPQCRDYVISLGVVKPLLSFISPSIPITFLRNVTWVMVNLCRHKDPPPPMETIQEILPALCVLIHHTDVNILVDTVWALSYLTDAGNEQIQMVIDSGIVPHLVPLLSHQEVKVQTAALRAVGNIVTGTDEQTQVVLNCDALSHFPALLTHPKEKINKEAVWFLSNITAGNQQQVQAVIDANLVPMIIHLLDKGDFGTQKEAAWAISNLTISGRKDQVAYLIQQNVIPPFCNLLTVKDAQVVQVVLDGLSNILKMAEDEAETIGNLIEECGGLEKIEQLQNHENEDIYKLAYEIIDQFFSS
Description for KPNA4 ARM major: as §1, §2
Description for KPNA7 ARM major: as §1, §2

With “Ac-EDEVYETVVDTSEEDS-NH2 [BRCA2_292-307 wild-type]”, at MAP1LC3B ATG8 [1], the Kd (as a rule, the concentration at which binding is half-saturated) is 3.12 ± 0.08 µM. On MAP1LC3B ATG8 [2] (replicate 1), the Ka amounted to 9160, the “S∆T” value is on record as -1.5, the “∆H” value is reported as -5832 and the “N (stoichiometry of the interaction)” value came to 0.70. Moreover, at MAP1LC3B ATG8 [2] (replicate 2), the Ka came to 55000, the “S∆T” value was 13.7, the “∆H” value is -2389 and the “N (stoichiometry of the interaction)” value is 0.684. The Kd at MAP1LC3B ATG8 [2] (average of the Kd [µM] column, wild-type technical duplicate, mutant technical triplets, read-out: Average Kd) is 64 µM. On MAP1LC3B ATG8 [2] (KD (isothermal titration calorimetry), 50 mM sodium phosphate pH 7.4, 1 mM DTT, peptide titrated in tenfold excess, 16 injections), this molecule gave a Kd of 20 to 100 µM.

Take EPRFSPPHSPPGPAMP: at ABL1 SH3 (setting [4]), the promiscuity amounted to 2, the specificity is given as 0.9643, the confidence is reported as 3 and the overlap was 1. This molecule gave a replicates at ABL1 SH3 (setting [4]) of 5.

For “HYLDLLALLLDSSEPRFSPPLSPPGPCMPEVFLEAAVALIQ [O15287.P386L]”, at ABL1 SH3, the mutant_found entry is reported as “TRUE”, the wildtype_found result is “TRUE”, the max_mutant_confidence stood at 2 and the max_wildtype_confidence amounted to 4. For the same molecule, the mutation_effect_on_PPI entry at ABL1 SH3 (bait ABL1_SH3__P00519_60_121) is given as “no_effect”.

On to “LSPVRSPTPPAAGFQPLLNGRLVPVPPTTPAPGVQLDVEAL [B1AK53.S719R]”, for which, at ABL1 SH3, the mutant_found entry is recorded as “FALSE”, the wildtype_found entry was “TRUE” and the max_wildtype_confidence was found to be 2. For the same molecule, the mutation_effect_on_PPI result on ABL1 SH3 (bait ABL1_SH3__P00519_60_121) is given as “no_effect”.

Turning to “Ac-EPSEKCTRLEEEIVEY-NH2 [CDC45_152-166 R157C]”, in the test with KPNA4 ARM, the Mutation enrichment score is listed as −7. At KPNA4 ARM major, the “weakened binding, mutant vs wild-type peptide” value came out at 70 fold. For the same molecule, on KPNA7 ARM major (from FP displacement KD values, KPNA7 ARM major pocket), the “loss of binding, mutant vs wild-type peptide” value stood at 50 fold. In addition, the Kd at KPNA7 ARM major was determined as 380 ± 15 µM.

For the molecule “HYLDLLALLLDSSEPRFSPPHSPPGPCMPEVFLEAAVALIQ [O15287.P386H]”, on ABL1 SH3, the mutant_found entry is listed as “TRUE”, the wildtype_found entry is reported as “TRUE”, the max_mutant_confidence was 3 and the max_wildtype_confidence was 4. The mutation_effect_on_PPI entry on ABL1 SH3 (bait ABL1_SH3__P00519_60_121) is “no_effect”.

In the test with ABL1 SH3 (setting [5]), EGR2 had a max_promiscuity of 5 and a max_specificity of 0.973.

On ABL1 SH3 (setting [4]), EPRFSPPPSPPGPAMP displayed a promiscuity of 5, a specificity of 0.995, a confidence of 4 and an overlap of 1. This molecule showed a replicates at ABL1 SH3 (setting [4]) of 6.

In the test on KPNA4 ARM, A7E2Y1 showed a max_promiscuity of 10 and a max_specificity of 0.7829.

Turning to “Ac-LDLDDRWQFKRSQLLD-NH2 [ABRAXAS1_349-364 R361Q]”, the Mutation enrichment score with KPNA4 ARM was −6. Further, the “weakened binding, mutant vs wild-type peptide” value at KPNA4 ARM major is on record as 400 fold.

On to `CC(=O)NCC(=O)N[C@@H](CC(=O)O)C(=O)N[C@@H](CC(=O)O)C(=O)N[C@@H](CC(=O)O)C(=O)N[C@@H](Cc1c[nH]c2ccccc12)C(=O)N[C@H](C(=O)N[C@@H](Cc1c[nH]cn1)C(=O)N[C@@H](CC(C)C)C(=O)N[C@@H](CO)C(=O)N[C@@H](CO)C(=O)N[C@@H](CCCCN)C(=O)N[C@@H](CCC(=O)O)C(=O)N[C@H](C(=O)N[C@@H](CC(=O)O)C(=O)N[C@@H](CC(C)C)C(=O)N[C@@H](CO)C(N)=O)C(C)C)[C@@H](C)O` [SQSTM1_334-349 P348L], for which, on MAP1LC3B ATG8 [3], the Mutation enrichment score was found to be 7.6. For the same molecule, the “effect of the mutation on binding (in words)” value on MAP1LC3B ATG8 [1] (FP affinity measurements, MAP1LC3B ATG8) was “the mutation has no impact on binding; also recorded: did not affect the binding”. In addition, the Kd at MAP1LC3B ATG8 [1] was 0.6 ± 0.1 µM.

As to NGSLVPVPPTTPAPGV, at ABL1 SH3 (setting [4]), the promiscuity came to 2, the specificity was determined as 0.8421, the confidence worked out at 2 and the overlap is 0. This molecule gave a replicates at ABL1 SH3 (setting [4]) of 4.

On ABL1 SH3 (setting [4]), LDSSEPRFSPPLSPPG yielded a promiscuity of 1, a specificity of 1, a confidence of 2 and an overlap of 1. At ABL1 SH3 (setting [4]), this molecule showed a replicates of 1. In addition, the mean_counts_% at ABL1 SH3 (phage selection, bait ABL1_SH3__P00519_60_121, NGS counts) is listed as 0.0009534%.

As for “KPPEEPGQCPAPEELPLFPPTGEPSLSPLLGEPALSEPGEP [O14686.P886T]”, at ABL1 SH3, the mutant_found entry was “FALSE”, the wildtype_found entry was “TRUE” and the max_wildtype_confidence was determined as 3. Also, the mutation_effect_on_PPI entry at ABL1 SH3 (bait ABL1_SH3__P00519_60_121) was “diminished”.

In the case of “Ac-EPSEKRTRLEEEIVEY-NH2 [CDC45_152-166 wild-type]”, the Kd at KPNA7 ARM major worked out at 6.6 ± 0.7 µM.

In the case of O14647, in the test with KPNA4 ARM, the max_promiscuity amounted to 11 and the max_specificity was 0.5779.

On ABL1 SH3 (setting [4]), PLFPPPGEPSLSPLLG returned a promiscuity of 2, a specificity of 0.9995, a confidence of 3 and an overlap of 0. The molecule also gave a replicates on ABL1 SH3 (setting [4]) of 6.

For the molecule “KPPEEPGQCPAPEELPLFPPSGEPSLSPLLGEPALSEPGEP [O14686.P886S]”, on ABL1 SH3, the mutant_found entry is “TRUE”, the wildtype_found result is given as “TRUE”, the max_mutant_confidence is 1 and the max_wildtype_confidence came out at 3. For the same molecule, on ABL1 SH3 (bait ABL1_SH3__P00519_60_121), the mutation_effect_on_PPI entry is reported as “no_effect”.

Turning to `CC(=O)NCC(=O)N[C@@H](CC(=O)O)C(=O)N[C@@H](CC(=O)O)C(=O)N[C@@H](CC(=O)O)C(=O)N[C@@H](Cc1c[nH]c2ccccc12)C(=O)N[C@H](C(=O)N[C@@H](Cc1c[nH]cn1)C(=O)N[C@@H](CC(C)C)C(=O)N[C@@H](CO)C(=O)N[C@@H](CO)C(=O)N[C@@H](CCCCN)C(=O)N[C@@H](CCC(=O)O)C(=O)N[C@H](C(=O)N[C@@H](CC(=O)O)C(=O)N1CCC[C@H]1C(=O)N[C@@H](CO)C(N)=O)C(C)C)[C@@H](C)O` [SQSTM1_334-349 wild-type], the Kd on MAP1LC3B ATG8 [1] was found to be 0.5 ± 0.1 µM.

Take “Ac-YPRMPEAARPVAPAPAAP-NH2 [TP53_64-80 P72R]”: the Mutation enrichment score at ABL1 SH3 (bait ABL1 SH3, from NGS counts of overlapping wild-type/mutant library peptide pairs, positive = mutation enhances, negative = disrupts binding) is recorded as −6.
